ChEMBL document CHEMBL1201862, “PubChem BioAssay data set” (2004)
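How tested: cells in 96-well plates exposed to compound for 48 hours at five concentrations. GI50 is the concentration that inhibits growth by half.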 Active and inactive are the calls of the source. Rule as the data show it: active = GI50 up to about 1.1 µM and inactive = higher.

Experiments:
Experiment in all cases: inhibition of tumour cell growth, NCI panel, 48 h
HT-29 = system: HT-29
PC-3 = system: PC-3
A498 = system: A498
OVCAR-5 = system: OVCAR-5
MCF7 = system: MCF7
SNB-75 = system: SNB-75
OVCAR-4 = system: OVCAR-4
HCT-116 = system: HCT-116
MDA-MB-231 = system: MDA-MB-231
MDA-N = system: MDA-N
UACC-62 = system: UACC-62
RPMI-8226 = system: RPMI-8226
DLD-1 = system: DLD-1
M19-MEL = system: M19-MEL
SN12C = system: SN12C
HOP-92 = system: HOP-92
SR = system: SR
OVCAR-3 = system: OVCAR-3
MOLT-4 = system: MOLT-4
CAKI-1 = system: CAKI-1
SK-MEL-5 = system: SK-MEL-5
M14 = system: M14
UACC-257 = system: UACC-257
RXF 393 = system: RXF 393
786-0 = system: 786-0
U-251 = system: U-251
SF-295 = system: SF-295
HL-60 = system: HL-60
RXF 631 = system: RXF 631
HOP-18 = system: HOP-18
SK-MEL-2 = system: SK-MEL-2
Hs-578T = system: Hs-578T
ACHN = system: ACHN
SNB-19 = system: SNB-19
KM12 = system: KM12
SNB-78 = system: SNB-78
NCI-H460 = system: NCI-H460
MDA-MB-435 = system: MDA-MB-435
LOX IMVI = system: LOX IMVI
SF-268 = system: SF-268
SK-OV-3 = system: SK-OV-3
DMS-273 = system: DMS-273
UO-31 = system: UO-31
NCI/ADR-RES = system: NCI/ADR-RES
K562 = system: K562
HCC 2998 = system: HCC 2998
NCI-H23 = system: NCI-H23
DU-145 = system: DU-145
KM-20L2 = system: KM-20L2
CCRF-CEM = system: CCRF-CEM
LXFL 529 = system: LXFL 529
T47D = system: T47D
TK-10 = system: TK-10
A549 = system: A549
IGROV-1 = system: IGROV-1
XF498 = system: XF498
EKVX = system: EKVX
NCI-H522 = system: NCI-H522
NCI-H226 = system: NCI-H226
SW-620 = system: SW-620
OVCAR-8 = system: OVCAR-8
DMS-114 = system: DMS-114
COLO 205 = system: COLO 205
SF-539 = system: SF-539
HCT-15 = system: HCT-15
Malme-3M = system: Malme-3M
SK-MEL-28 = system: SK-MEL-28
BT-549 = system: BT-549
HOP-62 = system: HOP-62

## CCN(CC)CCNc1ccc2nnn3c4ccc([N+](=O)[O-])cc4c(=O)c1c23
HT-29
  GI50: 3.89 µM (inactive)
PC-3
  GI50: 5.26 µM (inactive)
A498
  GI50: 6.3 µM (inactive)
OVCAR-5
  GI50: 13.2 µM (inactive)
MCF7
  GI50: 3.67 µM (inactive)
SNB-75
  GI50: 4.91 µM (inactive)
OVCAR-4
  GI50: 9.18 µM (inactive)
HCT-116
  GI50: 3.55 µM (inactive)
MDA-MB-231
  GI50: 3.94 µM (inactive)
MDA-N
  GI50: 71.8 µM (inactive)
UACC-62
  GI50: > 36.4 µM (inactive)
RPMI-8226
  GI50: 6.15 µM (inactive)
DLD-1
  GI50: 3.93 µM (inactive)
M19-MEL
  GI50: > 20.5 µM (inactive)
SN12C
  GI50: 7.05 µM (inactive)
HOP-92
  GI50: 11.3 µM (inactive)
SR
  GI50: 5.01 µM (inactive)
OVCAR-3
  GI50: > 79.6 µM (inactive)
MOLT-4
  GI50: 2.13 µM (inactive)
CAKI-1
  GI50: 4.14 µM (inactive)
SK-MEL-5
  GI50: 3.62 µM (inactive)
M14
  GI50: 11.8 µM (inactive)
UACC-257
  GI50: 10 µM (inactive)
RXF 393
  GI50: 4.78 µM (inactive)
786-0
  GI50: 4.34 µM (inactive)
U-251
  GI50: 5.21 µM (inactive)
SF-295
  GI50: 5.82 µM (inactive)
HL-60
  GI50: 6.52 µM (inactive)
RXF 631
  GI50: 4.11 µM (inactive)
HOP-18
  GI50: 2.8 µM (inactive)
SK-MEL-2
  GI50: 9.75 µM (inactive)
Hs-578T
  GI50: 14.1 µM (inactive)
ACHN
  GI50: 3.28 µM (inactive)
SNB-19
  GI50: 6.43 µM (inactive)
KM12
  GI50: 6.28 µM (inactive)
SNB-78
  GI50: 9.71 µM (inactive)
NCI-H460
  GI50: 3.93 µM (inactive)
MDA-MB-435
  GI50: > 100 µM (inactive)
LOX IMVI
  GI50: 4.58 µM (inactive)
SF-268
  GI50: 6.37 µM (inactive)
SK-OV-3
  GI50: > 37.6 µM (inactive)
DMS-273
  GI50: 5.16 µM (inactive)
UO-31
  GI50: 3.44 µM (inactive)
NCI/ADR-RES
  GI50: 7.16 µM (inactive)
K562
  GI50: 6.7 µM (inactive)
HCC 2998
  GI50: 25.8 µM (inactive)
NCI-H23
  GI50: 10.8 µM (inactive)
DU-145
  GI50: 7.69 µM (inactive)
KM-20L2
  GI50: 4.94 µM (inactive)
CCRF-CEM
  GI50: 4.91 µM (inactive)
LXFL 529
  GI50: 4.98 µM (inactive)
T47D
  GI50: > 100 µM (inactive)
TK-10
  GI50: 11.6 µM (inactive)
A549
  GI50: 4.47 µM (inactive)
IGROV-1
  GI50: 5.38 µM (inactive)
XF498
  GI50: 6.25 µM (inactive)
EKVX
  GI50: 14.1 µM (inactive)
NCI-H522
  GI50: 8.15 µM (inactive)
NCI-H226
  GI50: 3.34 µM (inactive)
SW-620
  GI50: 3 µM (inactive)
OVCAR-8
  GI50: 4.76 µM (inactive)
DMS-114
  GI50: 8.53 µM (inactive)
COLO 205
  GI50: 4.85 µM (inactive)
SF-539
  GI50: 3.35 µM (inactive)
HCT-15
  GI50: 6.93 µM
Malme-3M
  GI50: 9.12 µM (inactive)
SK-MEL-28
  GI50: 14 µM (inactive)
BT-549
  GI50: > 100 µM (inactive)
HOP-62
  GI50: 2.28 µM (inactive)
